Laboratory results reported in patent US20250276068A1, “PHARMACEUTICAL COMPOSITIONS OF POLYPEPTIDE CONJUGATES AND METHODS OF USES THEREOF” (BEIJING QL BIOPHARMACEUTICAL CO., LTD., priority 2022, published 2025).
Blank lines part the entries; values can stand above or below the molecule they belong to. *1 amine or outer side, *2 acyl side, *3 side chain or, on linkers, in order; H or OH if unused. Side-chain parts run from the residue outwards. [ ]: non-standard residue; d: D form. The star is where a group is joined. C18 diacid = O=C(O)CCCCCCCCCCCCCCCCC(=O)*; γGlu = O=C(O)[C@H](CCC(=O)[*:2])N[*:1]; AEEA = NCCOCCOCC(=O)O; Aib = CC(C)(N)C(=O)O

How the values were obtained:
C57BL/6 mice = test: Body weight loss in C57 lean mice after single s.c. dose; assay type: in vivo; conditions: 30 nmol/kg s.c. once
Description: Method: 10 week old male C57BL/6 mice were injected subcutaneously with protein once on Day1. Body weight was measured daily and five animals were used for each treatment group. Body weight was monitored for each individual animal. % BW loss=100*(BW on Day n−BW on Day 1)/(BW on Day 1). […] The area under the curve for body weight loss (%) from 0 until 8 days (AUG ΔBW 0-8d) was calculated.

db/db mice = test: Non-fasting glucose in db/db mice after single s.c. dose; assay type: in vivo
Description: Method: 10 weeks old male db/db mice were injected subcutaneously with GLP-1 polypeptide conjugate once. […] Delta blood glucose is glucose subtracted by baseline level. […] The area under the curve for delta blood glucose from 0 until 192 hours (AUCΔBG 0-192h) was calculated.

human serum albumin [1] = biological target: human serum albumin (Homo sapiens, UniProt P02768); test: Human serum albumin binding by surface plasmon resonance (Biacore 8K); conditions: human serum albumin on CM5 chip, SPR
Description: Method: Binding of molecules to serum albumin was characterized by surface plasmon resonance in a Biacore 8K instrument. Serum albumin from different species was covalently bound to CM5 sensor chips surface until 4000 RU was reached. The chip was blocked by 1M ethanolamine with flowrate of 10 μL/min for 420 s. Each molecule sample was diluted and injected at a flow rate of 30 μL/min to allow for binding to chip-bound albumin for 120 s and for dissociation for 300 s. Binding buffer without molecule was sent over the chip at the flow rate of 20 seconds to allow spontaneous dissociation of bound molecule for 30 seconds.

GLP-1 receptor = GLP-1 receptor (Homo sapiens, UniProt P43220); conditions: J. Med. Chem. 2015, 58, 7370-7380; cited from earlier work
Sequence of GLP-1 receptor (P43220 24-463, species assumed): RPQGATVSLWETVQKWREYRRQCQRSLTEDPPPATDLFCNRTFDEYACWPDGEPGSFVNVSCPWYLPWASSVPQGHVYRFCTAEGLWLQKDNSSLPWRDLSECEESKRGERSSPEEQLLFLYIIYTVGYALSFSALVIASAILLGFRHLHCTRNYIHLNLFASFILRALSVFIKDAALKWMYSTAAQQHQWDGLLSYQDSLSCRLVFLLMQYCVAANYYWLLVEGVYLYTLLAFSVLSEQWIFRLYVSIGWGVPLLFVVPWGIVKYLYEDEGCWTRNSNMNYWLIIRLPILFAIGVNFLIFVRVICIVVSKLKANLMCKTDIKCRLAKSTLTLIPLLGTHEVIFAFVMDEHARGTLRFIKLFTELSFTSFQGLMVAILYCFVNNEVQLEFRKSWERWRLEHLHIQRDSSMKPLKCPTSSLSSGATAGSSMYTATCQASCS

human serum albumin [2] = biological target: T1, human serum albumin (human, UniProt P02768 25-609); test: SPR (Biacore 8K), albumin on CM5 chip
T1 construct: also called HSA

Molecule: semaglutide
AUC ΔBW 0-8 d (day*%) (C57BL/6 mice; Study 1 (FIG. 1A)): −9.3 day*% | AUC ΔBW 0-8 d (day*%) (C57BL/6 mice; Study 2 (FIG. 1B)): −13.2 day*% | AUC ΔBG 0-192 h (db/db mice; 3 nmol/kg s.c. once): -317.0 mmol·h/L | AUC ΔBG 0-192 h (db/db mice; 10 nmol/kg s.c. once): -583.4 mmol·h/L | AUC ΔBG 0-192 h (db/db mice; 30 nmol/kg s.c. once): -527.1 mmol·h/L | Rmax (RU) (human serum albumin [1]): 55.2 RU | loss in GLP-1 receptor binding in presence of human serum albumin (HSA) relative to its unconjugated counterpart (GLP-1 receptor): 939 fold

binding result (human serum albumin [2]): binds
B1: Molecule 002 (peptide)
peptide: H[Aib]EGTFTSDVSSYLEGQAAREFIAWLVRGGGGAQPGAQPGAQPGAQPGAQPGAQPGAQPGAQPGAQPGQK([AEEA-AEEA-γGlu-C18 diacid])P
notes: Mono-acylated GLP-1 polypeptide conjugate; also called 1006

binding result (human serum albumin [2]): binds
B2: Molecule 019 (peptide)
peptide: H[Aib]EGTFTSDVSSYLEEQAAREFIAWLVRGGGGAQPGAQPGAQPGAQPGAQPGAQPGAQPGAQPGAQPGQK([AEEA-AEEA-γGlu-C18 diacid])P
notes: Mono-acylated GLP-1 polypeptide conjugate; also called 1023

binding result (human serum albumin [2]): binds
B3: Molecule 012 (peptide)
peptide: H[Aib]EGTFTSDVSSYLEEQAAK([AEEA-AEEA-γGlu-C18 diacid])EFIAWLVRGGGGAQPGAQPGAQPGAQPGAQPGAQPGAQPGAQPGAQPGQK([AEEA-AEEA-γGlu-C18 diacid])P
notes: Double-acylated GLP-1 polypeptide conjugate
